Measurements from patent US10065990B2, “Cyclic peptide compound, and preparation method, pharmaceutical composition and use thereof” (HANGZHOU GUANYU BIO-MEDICAL CO., LTD, priority 2013, dated 2018).
Like-named read-outs stand apart in the source and are kept apart here.

What was measured:
HDAC11 = target: T1, HDAC11 (Homo sapiens, UniProt Q96DB2); assay: HDAC biochemical activity measurement (fluorescent substrate deacetylation);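 further: HDAC11 enzyme acting on an acetyl-lysine fluorogenic substrate, then a developer frees the fluorophore, read at excitation 360 nm and emission 460 nm, IC50 over a compound dilution series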
T1 sequence (Q96DB2 1-347): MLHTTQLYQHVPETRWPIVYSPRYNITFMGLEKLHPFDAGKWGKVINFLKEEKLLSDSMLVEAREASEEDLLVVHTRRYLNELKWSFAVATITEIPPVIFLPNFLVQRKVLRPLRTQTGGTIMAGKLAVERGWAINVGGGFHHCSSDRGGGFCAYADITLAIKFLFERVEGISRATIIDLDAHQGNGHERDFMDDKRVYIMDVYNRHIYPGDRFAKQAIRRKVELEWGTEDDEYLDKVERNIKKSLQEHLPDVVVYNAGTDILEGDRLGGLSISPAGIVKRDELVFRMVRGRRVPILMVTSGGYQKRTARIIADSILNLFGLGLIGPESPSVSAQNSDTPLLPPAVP

HDAC2 = HDAC2 (Homo sapiens, UniProt Q92769); assay: as above; settings: 37° C. 30 minutes;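 further: HDAC2 enzyme with an acetyl-lysine fluorescent substrate, then developer added, fluorescence read at excitation 360 nm and emission 460 nm, inhibition measured across several compound concentrations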
HDAC2, sequence (Q92769 whole entry, species assumed): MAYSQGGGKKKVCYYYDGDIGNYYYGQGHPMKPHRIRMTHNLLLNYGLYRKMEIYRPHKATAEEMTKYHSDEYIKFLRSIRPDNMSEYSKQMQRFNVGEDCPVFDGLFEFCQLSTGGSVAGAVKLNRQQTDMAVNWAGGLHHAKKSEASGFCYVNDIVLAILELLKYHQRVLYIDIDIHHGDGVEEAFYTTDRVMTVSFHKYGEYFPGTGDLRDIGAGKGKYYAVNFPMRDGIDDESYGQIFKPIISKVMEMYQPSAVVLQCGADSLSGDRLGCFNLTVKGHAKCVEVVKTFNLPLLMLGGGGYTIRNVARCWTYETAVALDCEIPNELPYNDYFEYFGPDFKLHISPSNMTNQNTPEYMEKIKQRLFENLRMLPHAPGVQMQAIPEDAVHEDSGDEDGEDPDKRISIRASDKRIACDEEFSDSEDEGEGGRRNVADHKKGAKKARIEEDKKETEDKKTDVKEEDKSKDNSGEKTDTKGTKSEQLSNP

HDAC8 = target: T2, HDAC8 (Homo sapiens, UniProt Q9BY41); assay: as above; settings: 37° C. 30 minutes
T2 sequence (Q9BY41 1-377): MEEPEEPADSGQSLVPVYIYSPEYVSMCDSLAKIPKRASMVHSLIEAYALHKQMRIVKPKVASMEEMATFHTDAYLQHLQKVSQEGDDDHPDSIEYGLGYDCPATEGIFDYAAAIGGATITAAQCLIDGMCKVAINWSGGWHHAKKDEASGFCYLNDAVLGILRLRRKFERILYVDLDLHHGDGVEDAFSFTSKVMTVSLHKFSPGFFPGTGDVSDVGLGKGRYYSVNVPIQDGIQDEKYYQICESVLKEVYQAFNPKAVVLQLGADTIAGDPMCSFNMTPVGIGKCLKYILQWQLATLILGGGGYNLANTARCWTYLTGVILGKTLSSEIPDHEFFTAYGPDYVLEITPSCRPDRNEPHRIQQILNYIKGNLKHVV
Method: The chemical activity of the compound is determined according to the degree of deacetylation inhibition of the HDAC enzyme. This experiment measured the degree of deacetylation related to tumor proliferation and metastasis of HDAC1, HDAC2, HDAC3, HDAC8, HDAC11 five subtypes HDAC enzymes. After the substrate containing an acetylated lysine side chain and HDAC enzyme are labeled with a fluorescent label, the fluorescent substrate is de acetyl. The fluorescent labeled substrate is cleaved by the enzyme, and the fluorescent substance is released, which generates 460 nm emission light under the excitation of 360 nm light.
HDAC substrate was diluted with reaction buffer to 200M (reaction concentration of 20M), the HDAC enzyme was diluted to the appropriate concentration, then added different concentrations of the test compounds and acted at 37° C. 30 minutes, and then added the same volume of 2-times concentration substrate developing solution (developer), incubated at room temperature for 15 minutes.

HDAC3 = HDAC3 (Homo sapiens, UniProt O15379); assay: as above;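 further: fluorogenic acetyl-lysine substrate (20 µM) deacetylated by HDAC3, then developer added for 15 min at room temperature, release of fluorophore read at excitation 360 nm, emission 460 nm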
HDAC3, sequence (O15379 whole entry, species assumed): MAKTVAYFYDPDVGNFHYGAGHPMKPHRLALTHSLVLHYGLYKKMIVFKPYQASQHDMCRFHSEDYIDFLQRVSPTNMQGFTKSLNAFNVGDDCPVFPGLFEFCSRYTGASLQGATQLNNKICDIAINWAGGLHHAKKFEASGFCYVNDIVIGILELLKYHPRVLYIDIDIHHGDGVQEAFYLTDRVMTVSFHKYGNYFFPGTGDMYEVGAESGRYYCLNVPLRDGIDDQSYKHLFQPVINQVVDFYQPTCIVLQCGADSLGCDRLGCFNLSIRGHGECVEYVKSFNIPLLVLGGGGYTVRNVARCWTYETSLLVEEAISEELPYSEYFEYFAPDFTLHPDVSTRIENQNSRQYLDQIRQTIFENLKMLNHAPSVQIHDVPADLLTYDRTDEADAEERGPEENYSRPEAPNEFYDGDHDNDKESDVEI
HDAC3, sequence (Q9Y618 395-489 partner limits assumed, species assumed): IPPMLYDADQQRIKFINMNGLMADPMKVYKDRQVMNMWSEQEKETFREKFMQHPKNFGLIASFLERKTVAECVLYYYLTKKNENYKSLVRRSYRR

HDAC7 = target: T3, HDAC7 (Homo sapiens, UniProt Q8WUI4); assay: as above; settings: HDAC7; 37° C. 30 minutes;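 further: fluorogenic deacetylation assay using acetyl-lysine substrate at 20 µM, enzyme and compound incubated 30 min at 37 °C, then developer added, fluorescence read at 360/460 nm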
T3 sequence (Q8WUI4 1-952): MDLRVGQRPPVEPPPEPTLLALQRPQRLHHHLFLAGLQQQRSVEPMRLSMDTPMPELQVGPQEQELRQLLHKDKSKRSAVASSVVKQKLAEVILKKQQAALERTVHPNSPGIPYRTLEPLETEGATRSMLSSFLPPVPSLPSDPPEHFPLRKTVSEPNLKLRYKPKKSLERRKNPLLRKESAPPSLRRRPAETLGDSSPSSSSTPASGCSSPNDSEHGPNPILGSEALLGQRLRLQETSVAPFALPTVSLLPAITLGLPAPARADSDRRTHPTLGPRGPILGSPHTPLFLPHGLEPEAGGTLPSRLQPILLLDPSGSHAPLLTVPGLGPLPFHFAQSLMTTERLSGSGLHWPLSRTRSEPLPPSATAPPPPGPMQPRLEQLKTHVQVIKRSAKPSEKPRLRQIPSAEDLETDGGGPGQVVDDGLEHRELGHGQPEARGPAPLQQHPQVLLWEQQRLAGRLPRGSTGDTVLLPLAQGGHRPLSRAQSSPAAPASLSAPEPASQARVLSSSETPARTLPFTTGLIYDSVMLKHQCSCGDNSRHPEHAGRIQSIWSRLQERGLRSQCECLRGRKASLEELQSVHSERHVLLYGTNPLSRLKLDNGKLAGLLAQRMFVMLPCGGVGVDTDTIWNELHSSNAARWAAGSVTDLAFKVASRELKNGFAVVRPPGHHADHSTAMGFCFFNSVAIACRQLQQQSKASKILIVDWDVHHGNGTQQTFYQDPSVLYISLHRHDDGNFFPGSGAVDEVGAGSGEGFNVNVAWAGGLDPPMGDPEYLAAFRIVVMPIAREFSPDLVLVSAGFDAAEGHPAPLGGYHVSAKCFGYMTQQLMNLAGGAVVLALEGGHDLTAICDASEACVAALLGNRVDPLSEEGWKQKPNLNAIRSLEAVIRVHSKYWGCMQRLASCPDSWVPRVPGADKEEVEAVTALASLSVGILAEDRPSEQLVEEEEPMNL

[1] = tested on: K562 (human leukemia cells); assay: MTT cancer cell growth inhibition; type: cell-based; settings: Homo sapiens, K562, 72 h, MTT, 72 hours incubation, K562 cells; read-out: GI50 K562
Procedure, shortened: (§1)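 72 h exposure, final drug 10^−5–10^−10 M, triplicate wells; 1500 cells/well plated the day before; medium DMEM or 1640 + 10% FBS; 37° C./5% CO2. MTT (5 mg/ml stock) 4 h, DMSO solubilisation, A570 → % viability → GI50.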

[2] = tested on: A549 (human lung cancer cells); assay: MTT cancer cell growth inhibition; type: cell-based; settings: Homo sapiens, A549, 72 h, MTT, 72 hours incubation, read-out: GI50 A54
Procedure, shortened: as §1

[3] = tested on: BGC-823 (human gastric cancer cells); assay: MTT cancer cell growth inhibition; type: cell-based; settings: Homo sapiens, BGC-823, 72 h, MTT, 72 hours incubation, read-out: GI50 BG
Procedure, shortened: as §1

[4] = tested on: HT1080 (human fibrosarcoma cells); assay: MTT cancer cell growth inhibition; type: cell-based; settings: Homo sapiens, HT-1080, 72 h, MTT, 72 hours incubation, read-out: GI50 HT1
Procedure, shortened: as §1

[5] = tested on: KBM-5 (human chronic myelogenous leukemia); assay: MTT cancer cell growth inhibition; type: cell-based; settings: Homo sapiens, KBM5, 72 h, MTT, 72 hours incubation, KBM-5 cells; read-out: GI50 KBM-5
Procedure, shortened: as §1

[6] = tested on: MCF-7 (human breast cancer cells); assay: MTT cancer cell growth inhibition; type: cell-based; settings: Homo sapiens, MCF7, 72 h, 72 hours incubation, read-out: GI50 MCF
Procedure, shortened: as §1

[7] = read-out: IC50 HDAC11, HDAC11, 37° C. 30 minutes
[8] = read-out: IC50 HDAC3, HDAC3, 37° C. 30 minutes

SMILES	IC50 (HDAC11; [7])	IC50 (HDAC2)	IC50 (HDAC8)	IC50 (HDAC3; [8])	IC50 HDAC7 (HDAC7)	GI50 [1]	GI50 [2]	GI50 [3]	GI50 [4]	GI50 [5]	GI50 [6]	IC50 (HDAC11)	IC50 (HDAC3)	GI50 ([2]; A549 cells)	GI50 ([3]; BGC-823 cells)	GI50 ([4]; HT1080 cells)	GI50 ([6]; MCF-7 cells)
C/C=C1\NC(=O)c2nc(ccc2F)CNC(=O)C[C@@H](/C=C/CCSC(C)=O)OC(=O)[C@H](Cc2ccc(O)cc2)NC1=O [Compound 81]	95 nM	31 nM	26 nM	16 nM	no activity	29 nM	50 nM	30 nM	50 nM	38 nM	30 nM						
C/C=C1\NC(=O)c2cc(F)cc(n2)CNC(=O)C[C@@H](/C=C/CCSC(C)=O)OC(=O)[C@H](Cc2ccc(O)cc2)NC1=O [Example 82]		49 nM	34 nM		no activity	36 nM	40 nM	20 nM	80 nM	49 nM	30 nM	92 nM	53 nM				
C/C=C1\NC(=O)c2cc(C)cc(n2)CNC(=O)C[C@@H](/C=C/CCSC(C)=O)OC(=O)[C@H](Cc2ccccc2)NC1=O [Example 67]		34 nM	16 nM		no activity	39 nM	30 nM	50 nM	80 nM	46 nM	20 nM	92 nM	28 nM				
C/C=C1\NC(=O)c2ccc(F)c(n2)CNC(=O)C[C@@H](/C=C/CCSC(C)=O)OC(=O)[C@H](CCCCNC(=O)OCC2c3ccccc3-c3ccccc32)NC1=O [Example 77]		29 nM	37 nM		no activity	42 nM	600 nM	50 nM	80 nM	52 nM	30 nM	88 nM	26 nM				
C/C=C1\NC(=O)c2ccc(SC)c(n2)CNC(=O)C[C@@H](/C=C/CCSC(=O)CCCCCCC)OC(=O)[C@H](CC)NC1=O [Compound 173]		31 nM	39 nM		no activity	53 nM				13 nM		97 nM	37 nM	60 nM	40 nM	70 nM	20 nM
C/C=C1\NC(=O)c2cccc(n2)CNC(=O)C[C@@H](/C=C/CCSC(=O)CCCCCC)OC(=O)[C@H](C(C)C)NC1=O [Compound 2]	102 nM	163 nM	252 nM	177 nM	no activity	51 nM	40 nM	60 nM	50 nM	51 nM	30 nM						
C/C=C1\NC(=O)c2nc(ccc2F)CNC(=O)C[C@@H](/C=C/CCSC(C)=O)OC(=O)[C@H](Cc2cccc3ccccc23)NC1=O [Compound 78]	94 nM	37 nM	39 nM	38 nM	no activity	46 nM	60 nM	60 nM	70 nM	61 nM	10 nM						
CC(=O)SCC/C=C/[C@@H]1CC(=O)NCc2cc(F)cc(n2)C(=O)NC(=C(C)C)C(=O)N[C@@H](C(C)C)C(=O)O1 [Compound 88]	94 nM	35 nM	43 nM	41 nM	no activity	34 nM	20 nM	30 nM	60 nM	71 nM	20 nM						
C/C=C1\NC(=O)c2cc(F)cc(n2)CNC(=O)C[C@@H](/C=C/CCSC(C)=O)OC(=O)[C@H](Cc2cccc3ccccc23)NC1=O [Example 79]		19 nM	42 nM		no activity	27 nM	50 nM	20 nM	90 nM	76 nM	20 nM	93 nM	27 nM				
C/C=C1\NC(=O)c2cccc(n2)CNC(=O)C[C@@H](/C=C/CCSC(=O)CCCCC)OC(=O)[C@H](C(C)C)NC1=O [Compound 3]		158 nM	169 nM		no activity	37 nM	50 nM	60 nM	60 nM	73 nM	30 nM	100 nM	145 nM				
C=C1NC(=O)c2nc(ccc2F)CNC(=O)C[C@@H](/C=C/CCSC(C)=O)OC(=O)[C@H](C(C)C)NC1=O [Compound 84]	91 nM	43 nM	29 nM	29 nM	no activity	35 nM	40 nM	10 nM	70 nM	51 nM	20 nM						
